pEC50, pIC50: −log10 of the molar value. Where a name gives a salt, the structure may show the parent alone.

Among the data in patent US10882856B2 (BeiGene, Ltd., priority 2017, dated 2021) are EC50 and IC50 values, retold here.

Assay [1] has as its target T1, IDO1 (Homo sapiens, UniProt P14902). The experiment in a line: Hela cell-based IDO1 assay. The note with it: Hela cells. In a few lines:
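Kynurenine was measured at 480 nm in trichloroacetic acid-deproteinised supernatant after adding 2% 4-(dimethylamino)benzaldehyde. This supernatant came from HeLa cells seeded at 8000 per well in 96-well plates in phenol red-free DMEM with 10% FBS and, from 4 hours after seeding, exposed for 48 hours at 37 °C, 5% CO2 to DMSO-diluted compound dilutions, IFN-γ (final 100 ng/mL) and 0.4 mM L-Trp. The resulting data were fitted with a four-parameter logistic model in XLfit. Potency was taken from those fits.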

For assay [2], the target named is T2, cellular TDO2 in HEK293-TDO2 cells (Homo sapiens, UniProt P48775).
T2 construct: expressed in transfected cells; host or cells: HEK293 (ATCC), stably transfected
T2 sequence (P48775 whole entry): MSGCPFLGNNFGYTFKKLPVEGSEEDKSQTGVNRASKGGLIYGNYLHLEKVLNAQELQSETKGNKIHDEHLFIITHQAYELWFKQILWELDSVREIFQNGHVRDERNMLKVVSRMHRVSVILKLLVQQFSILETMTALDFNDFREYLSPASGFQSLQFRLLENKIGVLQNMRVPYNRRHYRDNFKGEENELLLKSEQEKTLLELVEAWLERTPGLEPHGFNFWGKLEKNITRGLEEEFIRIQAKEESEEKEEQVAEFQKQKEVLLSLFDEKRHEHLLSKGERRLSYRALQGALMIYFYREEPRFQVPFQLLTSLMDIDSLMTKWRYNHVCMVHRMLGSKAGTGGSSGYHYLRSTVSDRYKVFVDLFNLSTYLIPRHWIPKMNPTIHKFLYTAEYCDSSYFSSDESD
The experiment in a line: 293-TDO2 cell-based assay (Kyn colorimetric). The note with it: 48 hours of incubation. In a few lines: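 HEK293 cells stably expressing TDO2 (10000/well, phenol red-free DMEM, 10% FBS) were dosed 4 h after plating and incubated 48 h at 37° C. Supernatant Kyn was measured after TCA precipitation by 4-(dimethylamino)benzaldehyde colour at 480 nm. IC50 came from four-parameter logistic fits.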

Assay [3] deals with T1, IDO1. In words: IDO1 enzymatic assay. The assay is classed as biochemical. On the set-up: His tag (N); made in house; host or cells: E. coli. The following applies: read-out: Enzyme IC50 IDO1. In short, it runs like this:
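Assays were run in 50 mM potassium phosphate pH 7.5 with 0.1% BSA for 1.5 hours at 24 °C. Each contained 50 nM E. coli-purified, N-terminally His-tagged IDO1, compound, 1.3 mM D-tryptophan, 5 mM L-ascorbic acid, methylene blue and 0.4 mg/mL catalase. IC50 was calculated from remaining enzyme activity across a rising compound series, with activity taken as the slope of N'-formylkynurenine formation read continuously at 321 nm for 1 hour.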

T1 sequence (P14902 whole entry): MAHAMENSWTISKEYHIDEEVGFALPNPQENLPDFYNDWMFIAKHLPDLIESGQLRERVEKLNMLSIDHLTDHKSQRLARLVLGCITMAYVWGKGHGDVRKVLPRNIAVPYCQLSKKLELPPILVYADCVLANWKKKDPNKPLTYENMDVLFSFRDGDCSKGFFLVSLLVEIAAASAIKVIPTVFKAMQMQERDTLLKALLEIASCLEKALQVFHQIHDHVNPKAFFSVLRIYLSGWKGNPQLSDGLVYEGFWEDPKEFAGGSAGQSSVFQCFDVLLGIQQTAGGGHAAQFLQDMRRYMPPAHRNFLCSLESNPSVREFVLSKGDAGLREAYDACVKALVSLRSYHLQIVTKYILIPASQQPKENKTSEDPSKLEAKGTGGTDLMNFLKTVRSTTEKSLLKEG

With `OC(c1c(C2CC2)ccc2cncn12)[C@H]1CC[C@H](c2ccc3ccsc3c2)CC1` (single isomer, unassigned) [Example D134b], the negative-log EC50 (pEC50) (commonly the negative decadic logarithm of the EC50, by convention in mol/L) is 5.25 in assay [1] and under 5.00 in assay [2]. Further, the pIC50 – broadly, −log10 of the IC50, conventionally taken in molar units – in assay [3] was 5.57.
Regarding `O[C@@H](c1c(C2CC2)ccc2cncn12)[C@H]1CC[C@H](c2cccc3ccccc32)CC1` (single isomer, unassigned) [Example D135b], the pEC50 is 5.17 in assay [1] and under 5.00 in assay [2]. Moreover, the pIC50 in assay [3] was 5.28.
The corresponding values for `O[C@@H](c1c(C2CC2)ccc2cncn12)[C@H]1CC[C@H](c2ccc3ccccc3c2)CC1` (single isomer, unassigned) [Example D136b] are 5.14, under 5.00 and under 5.00.
On to `O[C@@H](c1c(C2CC2)ccc2cncn12)[C@H]1CC[C@H](c2ccc(F)c3ccccc32)CC1` (single isomer, unassigned) [Example D137b], for which the pEC50 in assay [1] is 5.68; in assay [2], under 5.00. Besides, the pIC50 in assay [3] was 5.77.
The corresponding values for `COc1ccc([C@H]2CC[C@H](C(O)c3c(C4CC4)ccc4cncn34)CC2)c2ccccc12` (single isomer, unassigned) [Example D139a] are 6.35, under 5.00 and 7.48.
As to `COc1ccc([C@H]2CC[C@H](C(O)c3c(C4CC4)ccc4cncn34)CC2)c2ccccc12` (single isomer, unassigned) [Example D139b], the pEC50 in assay [1] is 5.35; in assay [2], under 5.00. The pIC50 in assay [3] was under 5.00.
With `O[C@@H](c1c(C2CC2)ccc2cncn12)[C@H]1CC[C@H](c2ccnc3ccccc32)CC1` (single isomer, unassigned) [Example D140b], the pEC50 in assay [1] was 5.76; in assay [2], under 5.00. Besides, in assay [3], the pIC50 is 5.74.
With `O[C@@H](c1c(C2CC2)ccc2cncn12)[C@H]1CC[C@H](c2cccc3ncccc32)CC1` (single isomer, unassigned) [Example D141b], the pEC50 in assay [1] is 5.12; in assay [2], under 5.00. Also, in assay [3], the pIC50 is 5.42.
Turning to `O[C@H](c1c(C2CC2)ccc2cncn12)[C@H]1CC[C@H](c2cc(F)cc(F)c2)CC1` (single isomer, unassigned) [Example D144a], the pEC50 in assay [1] was 7.28; in assay [2] it was under 5.00. Moreover, in assay [3], the pIC50 was 7.64.
Taken in the same sequence, the figures for `O[C@@H](c1c(C2CC2)ccc2cncn12)[C@H]1CC[C@H](c2cc(F)cc(F)c2)CC1` (single isomer, unassigned) [Example D144b] were 5.19, under 5.00 and 5.10.
As to `O[C@@H](c1c(C2CC2)ccc2cncn12)[C@H]1CC[C@H](c2ccc(F)c(F)c2F)CC1` (single isomer, unassigned) [Example D145b], the figures for the pEC50 in assay [1] and in assay [2] were 5.02 and under 5.00, respectively. The pIC50 in assay [3] is under 5.00.
For `COc1ccc([C@H]2CC[C@H](C(O)c3c(C4CC4)ccc4cncn34)CC2)c(F)c1` (single isomer, unassigned) [Example D146a], the pEC50 is 6.91 in assay [1] and under 5.00 in assay [2]. For the same molecule, in assay [3], the pIC50 was 7.72.
Consider `COc1ccc([C@H]2CC[C@H](C(O)c3c(C4CC4)ccc4cncn34)CC2)c(F)c1` (single isomer, unassigned) [Example D146b], for which the results for the pEC50 in assay [1] and in assay [2] were 5.34 and under 5.00, respectively. Also, the pIC50 in assay [3] is 5.54.
In the case of `COc1ccc([C@H]2CC[C@H]([C@H](O)c3c(C4CC4)ccc4cncn34)CC2)c(Cl)c1` (single isomer, unassigned) [Example D147a], the pEC50 is 6.70 in assay [1] and under 5.00 in assay [2]. For the same molecule, the pIC50 in assay [3] is 7.70.
Take `COc1ccc([C@H]2CC[C@H]([C@@H](O)c3c(C4CC4)ccc4cncn34)CC2)c(Cl)c1` (single isomer, unassigned) [Example D147b]: the pEC50 in assay [1] is 5.35; in assay [2], under 5.00. For the same molecule, in assay [3], the pIC50 was under 5.00.
Turning to `COc1ccc([C@H]2CC[C@H](C(O)c3c(C4CC4)ccc4cncn34)CC2)cc1Cl` (single isomer, unassigned) [Example D148a, hydrochloride], the figures for the pEC50 in assay [1] and in assay [2] were 7.10 and under 5.00, respectively. For the same molecule, the pIC50 in assay [3] was 7.77.
Taken in the same sequence, the figures for `COc1ccc([C@H]2CC[C@H](C(O)c3c(C4CC4)ccc4cncn34)CC2)cc1Cl` (single isomer, unassigned) [Example D148b, hydrochloride] were 5.15, under 5.00 and under 5.00.
Regarding `O[C@H](c1c(C2CC2)ccc2cncn12)[C@H]1CC[C@H](c2ccnc3ccc(F)cc32)CC1` (single isomer, unassigned) [Example D150a], the pEC50 in assay [1] is 7.74; in assay [2], under 5.00. Also, in assay [3], the pIC50 is 7.80.
The corresponding values for `O[C@@H](c1c(C2CC2)ccc2cncn12)[C@H]1CC[C@H](c2ccnc3ccc(F)cc32)CC1` (single isomer, unassigned) [Example D150b] are 5.96, under 5.00 and 5.85.
`OC(c1c(C2CC2)ccc2cncn12)[C@H]1CC[C@H](c2csc3ccccc32)CC1` (single isomer, unassigned) [Example D155a]: the negative-log EC50 (pEC50) is 7.57 in assay [1] and under 5.00 in assay [2]. Further, in assay [3], the pIC50 was 7.55.
The corresponding values for `O[C@@H](c1c(C2CC2)ccc2cncn12)C1CCC(c2csc3ccccc23)CC1` (single isomer, unassigned) [Example D155b] are 5.25, under 5.00 and 5.05.
Taken in the same sequence, the figures for `O[C@@H](c1c(C2CC2)ccc2cncn12)[C@H]1CC[C@H](c2cccc(F)c2)CC1` (single isomer, unassigned) [Example D156b] were 5.16, under 5.00 and under 5.00.
The corresponding values for `O[C@H](c1c(C2CC2)ccc2cncn12)[C@H]1CC[C@H](c2ccc3ncccc3c2)CC1` (single isomer, unassigned) [Example D157a] are 7.28, under 5.00 and 7.82.
Take `O[C@@H](c1c(C2CC2)ccc2cncn12)[C@H]1CC[C@H](c2ccc3ncccc3c2)CC1` (single isomer, unassigned) [Example D157b]: the pEC50 in assay [1] and in assay [2] was under 5.00 each time. Also, in assay [3], the pIC50 is under 5.00.
In the case of `CC(C)c1ccc2cncn2c1[C@@H](O)[C@H]1CC[C@H](c2ccc(F)cc2)CC1` (single isomer, unassigned) [Example D166a], the results for the pEC50 in assay [1] and in assay [2] were 7.85 and under 5.00, respectively. Besides, in assay [3], the pIC50 was 7.59.
As for `CC(C)c1ccc2cncn2c1[C@H](O)[C@H]1CC[C@H](c2ccc(F)cc2)CC1` (single isomer, unassigned) [Example D166b], the pEC50 in assay [1] was 5.28; in assay [2], under 5.00. The pIC50 in assay [3] was under 5.00.
Regarding `CC(C)c1ccc2cncn2c1[C@@H](O)[C@H]1CC[C@H](c2cccc(F)c2)CC1` (single isomer, unassigned) [Example D167a], the figures for the pEC50 in assay [1] and in assay [2] were 7.82 and under 5.00, respectively. Besides, the pIC50 in assay [3] was 7.74.
Take `CC(C)c1ccc2cncn2c1[C@H](O)[C@H]1CC[C@H](c2cccc(F)c2)CC1` (single isomer, unassigned) [Example D167b]: the pEC50 in assay [1] is 5.55; in assay [2], under 5.00. The pIC50 in assay [3] is 5.01.
Taken in the same sequence, the figures for `CC(C)c1ccc2cncn2c1[C@@H](O)[C@H]1CC[C@H](c2cccc(Cl)c2)CC1` (single isomer, unassigned) [Example D168a] were 7.60, under 5.00 and 7.77.
The corresponding values for `CC(C)c1ccc2cncn2c1[C@H](O)[C@H]1CC[C@H](c2cccc(Cl)c2)CC1` (single isomer, unassigned) [Example D168b] are 5.19, under 5.00 and under 5.00.
The corresponding values for `COc1cccc([C@H]2CC[C@H]([C@H](O)c3c(C(C)C)ccc4cncn34)CC2)c1` (single isomer, unassigned) [Example D169a] are 7.85, under 5.00 and 7.82.
With `COc1cccc([C@H]2CC[C@H]([C@@H](O)c3c(C(C)C)ccc4cncn34)CC2)c1` (single isomer, unassigned) [Example D169b], the pEC50 in assay [1] was 5.23; in assay [2], under 5.00. The pIC50 in assay [3] was 5.12.
`O[C@@H](c1c(C2CC2)ccc2cncn12)C1CCN(c2ccccc2)CC1` (single isomer, unassigned) [Example D170b]: the pEC50 in assay [1] is 5.10; in assay [2], under 5.00. The pIC50 in assay [3] was 5.05.
